Values after ≈ are worked out from the molar mass of the structure shown.
What was measured:
[1] = test system: MT4; test: Concentration of compound that reduces the viability of mock-infected MT-4 cells by 50%; assay type: functional; settings: Homo sapiens
[2] = test system: MT4; test: Maximum protection (%) of MT-4 cells from HIV-2 (ROD) induced cytopathogenicity; assay type: functional, Homo sapiens
[3] = test system: MT4; test: Maximum protection (%) of MT-4 cells from HIV-1 (IIIB) induced cytopathogenicity; value ranges from 0-1%; assay type: functional, Homo sapiens
[4] = test system: MT4; test: Concentration required for protection of MT-4 cells from HIV-1 (IIIB) induced cytopathogenicity in MTT assay; assay type: functional, cell-based; settings: Homo sapiens
[5] = test system: MT4; test: Concentration required for protection of MT-4 cells from HIV-2 (ROD) induced cytopathogenicity in MTT assay; assay type: functional, cell-based; settings: Homo sapiens
[6] = test system: CCRF-CEM; test: Concentration of compound that reduces the viability of mock-infected CEM cells by 50%; assay type: functional; settings: Homo sapiens
[7] = test system: MT4; test: Maximum protection (%) of MT-4 cells from HIV-2 (ROD) induced cytopathogenicity; value ranges from 51-55%; assay type: functional, Homo sapiens
[8] = test system: MT4; test: Maximum protection (%) of MT-4 cells from HIV-1 (IIIB) induced cytopathogenicity; value ranges from 60-91%; assay type: functional, Homo sapiens
[9] = Concentration of compound required for reduction of p24 production in HIV-1 (IIIB) infected peripheral blood mononuclear cells; assay type: functional; settings: Homo sapiens
[10] = test system: CCRF-CEM; test: Concentration of compound required for protection of CEM cells from HIV-2 (ROD) induced cytopathogenicity; assay type: functional, cell-based; settings: Homo sapiens
[11] = test system: CCRF-CEM; test: Concentration of compound required for protection of CEM cells from HIV-1 (IIIB) induced cytopathogenicity; assay type: functional, cell-based; settings: Homo sapiens
[12] = Concentration of compound that reduces the viability of mock-infected peripheral blood mononuclear cells by 50%; assay type: functional; settings: Homo sapiens
[13] = test system: CCRF-CEM; test: Selectivity index towards HIV-2 (ROD) in CEM cells; assay type: functional, Homo sapiens
[14] = test system: CCRF-CEM; test: Selectivity index towards HIV-1 (IIIB) in CEM cells; assay type: functional, Homo sapiens
[15] = test system: MT4; test: Selectivity index towards HIV-2 (ROD) in MT-4 cells; assay type: functional, Homo sapiens
[16] = test system: MT4; test: Selectivity index towards HIV-1 (IIIB) in MT-4 cells; assay type: functional, Homo sapiens
[17] = Selectivity index towards HIV-1 (IIIB) in peripheral blood mononuclear cells; assay type: functional, Homo sapiens
[18] = test system: MT4; test: Maximum protection (%) of MT-4 cells from HIV-2 (ROD) induced cytopathogenicity; value ranges from 60-64%; assay type: functional, Homo sapiens
[19] = test system: MT4; test: Maximum protection (%) of MT-4 cells from HIV-1 (IIIB) induced cytopathogenicity; value ranges from 35-59%; assay type: functional, Homo sapiens
[20] = test system: MT4; test: Maximum protection (%) of MT-4 cells from HIV-2 (ROD) induced cytopathogenicity; value ranges from 15-21%; assay type: functional, Homo sapiens
[21] = test system: MT4; test: Maximum protection (%) of MT-4 cells from HIV-1 (IIIB) induced cytopathogenicity; value ranges from 65-86%; assay type: functional, Homo sapiens
[22] = test system: MT4; test: Maximum protection (%) of MT-4 cells from HIV-1 (IIIB) induced cytopathogenicity; value ranges from 7-30%; assay type: functional, Homo sapiens
[23] = test system: MT4; test: Maximum protection (%) of MT-4 cells from HIV-2 (ROD) induced cytopathogenicity; value ranges from 17-31%; assay type: functional, Homo sapiens
[24] = test system: MT4; test: Maximum protection (%) of MT-4 cells from HIV-2 (ROD) induced cytopathogenicity; value ranges from 51-81%; assay type: functional, Homo sapiens
[25] = test system: MT4; test: Maximum protection (%) of MT-4 cells from HIV-1 (IIIB) induced cytopathogenicity; value ranges from 25-30%; assay type: functional, Homo sapiens
[26] = test system: MT4; test: Maximum protection (%) of MT-4 cells from HIV-2 (ROD) induced cytopathogenicity; value ranges from 58-83%; assay type: functional, Homo sapiens
[27] = test system: MT4; test: Maximum protection (%) of MT-4 cells from HIV-1 (IIIB) induced cytopathogenicity; value ranges from 55-118%; assay type: functional, Homo sapiens
[28] = test system: MT4; test: Maximum protection (%) of MT-4 cells from HIV-1 (IIIB) induced cytopathogenicity; value ranges from 16-21%; assay type: functional, Homo sapiens
[29] = test system: MT4; test: Maximum protection (%) of MT-4 cells from HIV-2 (ROD) induced cytopathogenicity; value ranges from 17-27%; assay type: functional, Homo sapiens
[30] = test system: MT4; test: Maximum protection (%) of MT-4 cells from HIV-2 (ROD) induced cytopathogenicity; value ranges from 43-78%; assay type: functional, Homo sapiens
[31] = test system: MT4; test: Maximum protection (%) of MT-4 cells from HIV-1 (IIIB) induced cytopathogenicity; value ranges from 57-110%; assay type: functional, Homo sapiens
[32] = test system: MT4; test: Maximum protection (%) of MT-4 cells from HIV-1 (IIIB) induced cytopathogenicity; value ranges from 4-8%; assay type: functional, Homo sapiens

| Structure (SMILES) | EC50 [9] [µg/mL] | EC50 [10] [µg/mL] | EC50 [11] [µg/mL] | CC50 [1] [µg/mL] | EC50 [4] [µg/mL] | EC50 [5] [µg/mL] | CC50 [6] [µg/mL] | CC50 [12] [µg/mL] | Selectivity index [13] | Selectivity index [14] | Selectivity index [15] | Selectivity index [16] | Selectivity index [17] | also measured |
| --- | --- | --- | --- | --- | --- | --- | --- | --- | --- | --- | --- | --- | --- | --- |
| Cn1cc(C(=O)O)c(=O)c2cc(N)c(N3CCN(c4nc5ccccc5[nH]4)CC3)cc21 | – | – | – | > 125 | > 125 | > 125 | – | – | – | – | – | – | – | Protection [2]: 0%; Protection [3]: <1% |
| Cn1cc(C(=O)O)c(=O)c2cc(N)c(N3CCN(c4ccccc4F)CC3)cc21 | – | – | – | > 125 | > 125 | > 125 | – | – | – | – | – | – | – | Protection [22]: <30%; Protection [23]: <31% |
| Cn1cc(C(=O)O)c(=O)c2cc(N)c(N3CCN(c4nc5ccccc5s4)CC3)cc21 | – | – | – | 0.0054 (≈ 0.0124 µM) | > 0.0054 | 0.0011 (≈ 0.00253 µM) | – | – | – | – | 5.1 | <1 | – | Protection [24]: <81%; Protection [25]: <30% |
| COc1ccccc1N1CCN(c2cc3c(cc2N)c(=O)c(C(=O)O)cn3C)CC1 | – | – | – | 7.45 (≈ 18.2 µM) | > 7.45 | > 7.45 | – | – | – | – | <1 | <1 | – | Protection [28]: <21%; Protection [29]: <27% |
| Cn1cc(C(=O)O)c(=O)c2cc(N)c(N3CCN(c4nc5cc(Cl)ccc5s4)CC3)cc21 | – | – | – | 0.0021 (≈ 0.00447 µM) | > 0.0021 | > 0.0021 | – | – | – | – | <1 | <1 | – | Protection [2]: 3%; Protection [32]: <8% |

More lines, main results first:

| EC50 [9] [µg/mL] | EC50 [10] [µg/mL] | EC50 [11] [µg/mL] | Structure (SMILES) | CC50 [1] [µg/mL] | EC50 [4] [µg/mL] | EC50 [5] [µg/mL] | CC50 [6] [µg/mL] | CC50 [12] [µg/mL] | Selectivity index [13] | Selectivity index [14] | Selectivity index [15] | Selectivity index [16] | Selectivity index [17] | also measured |
| --- | --- | --- | --- | --- | --- | --- | --- | --- | --- | --- | --- | --- | --- | --- |
| 0.04 (≈ 0.105 µM) | 0.2 (≈ 0.526 µM) | 0.08 (≈ 0.21 µM) | Cn1cc(C(=O)O)c(=O)c2cc(N)c(N3CCN(c4cnccn4)CC3)cc21 | 3.98 (≈ 10.5 µM) | 0.7 (≈ 1.84 µM) | 1.54 (≈ 4.05 µM) | > 100 | 3.65 (≈ 9.59 µM) | >500 | >1250 | 2.6 | 5.7 | 81 | Protection [7]: <55%; Protection [8]: <91% |
| 0.05 (≈ 0.132 µM) | 0.06 (≈ 0.158 µM) | 0.03 (≈ 0.0791 µM) | Cn1cc(C(=O)O)c(=O)c2cc(N)c(N3CCN(c4ccccn4)CC3)cc21 | 0.71 (≈ 1.87 µM) | ≥ 0.29 | 0.19 (≈ 0.501 µM) | > 100 | 1.45 (≈ 3.82 µM) | >1667 | >3333 | 3.7 | <=2.4 | 28 | Protection [18]: <64%; Protection [19]: <59% |
| 0.04 (≈ 0.0954 µM) | 0.02 (≈ 0.0477 µM) | 0.01 (≈ 0.0238 µM) | Cn1cc(C(=O)O)c(=O)c2cc(N)c(N3CCN(c4nc5ccccc5o4)CC3)cc21 | 0.09 (≈ 0.215 µM) | 0.01 (≈ 0.0238 µM) | 0.0087 (≈ 0.0207 µM) | 2.2 (≈ 5.25 µM) | 1.12 (≈ 2.67 µM) | 110 | 220 | 11.3 | 6.5 | 26 | Protection [20]: <21%; Protection [21]: <86% |
| 0.03 (≈ 0.0778 µM) | 0.08 (≈ 0.208 µM) | 0.06 (≈ 0.156 µM) | Cn1cc(C(=O)O)c(=O)c2cc(N)c(N3CCN(c4nccs4)CC3)cc21 | 1.17 (≈ 3.04 µM) | 0.13 (≈ 0.337 µM) | 0.08 (≈ 0.208 µM) | ≥ 100 | 1.3 (≈ 3.37 µM) | >=1250 | >=1667 | 14.6 | 9 | 41 | Protection [26]: <83%; Protection [27]: <118% |
| 0.05 (≈ 0.112 µM) | 0.2 (≈ 0.448 µM) | 0.09 (≈ 0.202 µM) | Cn1cc(C(=O)O)c(=O)c2cc(N)c(N3CCN(c4cccc(C(F)(F)F)c4)CC3)cc21 | 2.18 (≈ 4.88 µM) | 0.31 (≈ 0.694 µM) | ≥ 0.31 | 8 (≈ 17.9 µM) | 1.55 (≈ 3.47 µM) | 40 | 89 | <=7 | 7 | 28 | Protection [30]: <78%; Protection [31]: <110% |
